Read-outs that look alike come from different tables or passages of the source.
Target: BTK (Homo sapiens, UniProt Q06187)
Assay: biochemical
[1] = read-out: BTK inhibition (%), 0.75 uM BTK, […] probe 3l, 15 min preincubation

Chain of BTK (Q06187 402-655 limits assumed): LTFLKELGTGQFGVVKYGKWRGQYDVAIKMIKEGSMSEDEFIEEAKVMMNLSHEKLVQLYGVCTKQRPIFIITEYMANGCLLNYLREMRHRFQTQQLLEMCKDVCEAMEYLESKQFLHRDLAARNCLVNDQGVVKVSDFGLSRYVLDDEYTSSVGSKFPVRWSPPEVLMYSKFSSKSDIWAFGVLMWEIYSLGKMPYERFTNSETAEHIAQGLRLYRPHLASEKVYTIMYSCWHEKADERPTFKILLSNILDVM

Row | SMILES | inhibition at 10 µM [1] | inhibition at 10 µM (read-out: BTK inhibition (%))
1 | CC1=C(C(=O)OC2CCCCC2)C(c2ccc([N+](=O)[O-])cc2)C2=C(CC(C)(C)CC2=O)N1 (stereo not drawn) [PCM-0095815] | 46.3% | –
2 | Oc1ccc(/C=C/c2cc(O)cc(O)c2)cc1 [PCM-0065629] | 23.3% | –
3 | CC(=O)O[C@@H]1C[C@H](O)[C@@]23CO[C@@H](O)[C@]1(C)[C@@H]2C[C@@H](O)[C@]1(C)[C@@H]3C(=O)[C@H](OC(C)=O)[C@@]2(C)[C@H](c3ccoc3)C[C@H]3O[C@]321 [PCM-0216537] | -15.4% | –
4 | O=c1cc(-c2ccc(O)cc2)oc2c([C@@H]3O[C@H](CO)[C@@H](O)[C@H](O)[C@H]3O)c(O)cc(O)c12 [PCM-0216454] | 26.3% | –
5 | C[C@H]1C[C@@H]2[C@H]([C@@H](O)C[C@@]3(C)[C@H]2CC[C@]3(O)C(=O)CO)[C@@]2(C)C=CC(=O)C=C12 [PCM-0085838] | 9% | –
6 | C=CC(=O)Nc1cccc(Sc2nc(Nc3ccc(N4CCN(C)CC4)cc3)ncc2Cl)c1 [PCM-0095052] | 95.9% | –
7 | CCOC(=O)C1=C(C)NC(C)=C(C(=O)OCC)C1 [PCM-0216569] | 10.8% | –
8 | NC(=O)Cc1c[nH]c2ccccc12 [PCM-0216587] | 3.1% | –
9 | C[C@H](NC(=O)Cc1cc(F)cc(F)c1)C(=O)N[C@H](C(=O)OC(C)(C)C)c1ccccc1 [PCM-0095251] | -29% | –
10 | CC(C)CN(C[C@@H](O)[C@H](Cc1ccccc1)NC(=O)O[C@H]1CCOC1)S(=O)(=O)c1ccc(N)cc1 [PCM-0214738] | -41.2% | –
11 | Cc1cc(C)c(-c2csc(NC(=O)c3ccccc3)n2)c(C)c1 [PCM-0095756] | 41.7% | –
12 | CCC1=C[C@@H]2CN(C1)Cc1c([nH]c3ccccc13)[C@@](C(=O)OC)(c1cc3c(cc1OC)N(C)[C@H]1[C@@](O)(C(=O)OC)[C@H](OC(C)=O)[C@]4(CC)C=CCN5CC[C@]31[C@@H]54)C2 [PCM-0214792] | 14% | –
13 | CC(C)N(CC[C@H](c1ccccc1)c1cc(CO)ccc1O)C(C)C [PCM-0095530] | 3.9% | –
14 | Cc1[nH]c(/C=C2\C(=O)Nc3ccc(S(=O)(=O)N(C)c4cccc(Cl)c4)cc32)c(C)c1C(=O)N1CCN(C)CC1 [PCM-0095046] | 6.9% | –
15 | Cc1cc(N2CCN([C@@H]3CN[C@H](C(=O)N4CCSC4)C3)CC2)n(-c2ccccc2)n1 [PCM-0214840] | – | 0.8%
16 | Cc1cc(N2CCOCC2)ccc1Nc1nc(NC2CCCCC2)c2[nH]cnc2n1 [PCM-0215306] | 33.2% | –
17 | Cc1nnc(SCC2=C(C(=O)O)N3C(=O)[C@@H](NC(=O)Cn4cc(Cl)c(=O)c(Cl)c4)[C@H]3SC2)s1 [PCM-0215135] | -13.2% | –
18 | CC(C)CCN1c2nc(Nc3cc(F)c(O)c(F)c3)ncc2N(C)C(=O)C1C (stereo not drawn) [PCM-0095469] | 48.3% | –
19 | OC[C@H]1OC(O)[C@H](O)[C@@H](O)[C@@H]1O (stereo partly drawn) [PCM-0095297] | -10.1% | –
20 | CS(=O)(=O)N1CCc2c(-c3cnc(N)nc3)nc(N3CCOCC3)nc21 [PCM-0095409] | -5.5% | –
21 | COC(=O)c1ccc(O)c(O)c1 [PCM-0215036] | -15.6% | –
22 | Cc1ccc(NC(=S)NNc2c([N+](=O)[O-])cc(C(F)(F)F)cc2[N+](=O)[O-])cc1Cl [PCM-0215660] | – | 90.3%
23 | CCNC(=O)[C@@H]1CCCN1C(=O)[C@H](CCCN=C(N)N)NC(=O)[C@H](CC(C)C)NC(=O)[C@@H](C)NC(=O)[C@H](Cc1ccc(O)cc1)NC(=O)[C@H](CO)NC(=O)[C@H](Cc1c[nH]c2ccccc12)NC(=O)[C@H](Cc1cnc[nH]1)NC(=O)C1CCC(=O)N1 (stereo partly drawn) [PCM-0216272] | 23.8% | –

Second part, led by results:

Row | inhibition at 10 µM [1] | SMILES | inhibition at 10 µM (read-out: BTK inhibition (%))
24 | -13.2% | CC[C@H]1OC(=O)[C@H](C)[C@@H](O[C@H]2C[C@@](C)(OC)[C@@H](O)[C@H](C)O2)[C@H](C)[C@@H](O[C@@H]2O[C@H](C)C[C@H](N(C)C)[C@H]2O)[C@](C)(O)C[C@@H](C)CN[C@H](C)[C@@H](O)[C@]1(C)O [PCM-0215099] | –
25 | 2.1% | CCOC(=O)OC(C)OC1=C(C(=O)Nc2ccccn2)N(C)S(=O)(=O)c2ccccc21 (stereo not drawn) [PCM-0090753] | –
26 | -1.5% | CC(C)(O[C@@H]1O[C@H](CO)[C@@H](O)[C@H](O)[C@H]1O)[C@H]1Cc2cc3ccc(=O)oc3cc2O1 [PCM-0216505] | –
27 | -11.7% | CCN[C@H]1CN(CCCOC)S(=O)(=O)c2sc(S(N)(=O)=O)cc21 [PCM-0086056] | –
28 | 25.5% | Cc1cccc(-c2[nH]c(C(C)(C)C)nc2-c2ccc3nccnc3c2)n1 [PCM-0065614] | –
29 | -11.6% | CN[C@@H](C)C(=O)N[C@H](C(=O)N1CCC[C@H]1c1nc(C(=O)c2ccc(F)cc2)cs1)C1CCCCC1 [PCM-0215366] | –
30 | -14.8% | CN(C)CCCC1(c2ccc(F)cc2)OCc2cc(C#N)ccc21 (stereo not drawn) [PCM-0064474] | –
31 | 61.4% | CC(C)(C)c1cc(NC(=O)Nc2ccc(Oc3ccnc4[nH]c(=O)cnc34)cc2F)n(-c2ccccc2)n1 [PCM-0215780] | –
32 | 82.6% | CN(CC(=O)N(Cc1ccc(C2CCCCC2)cc1)c1ccc(C(=O)O)c(O)c1)S(=O)(=O)c1c(F)c(F)c(F)c(F)c1F [PCM-0215770] | –
33 | 17% | O=C(c1ccc(Cl)cc1Cl)n1nnc2ccccc21 [PCM-0215673] | –
34 | -4.6% | Cc1ccc(S(=O)(=O)Cc2nc(-c3ccc(C(=O)NCc4cccnc4)cc3)oc2C)cc1 [PCM-0215271] | –
35 | 17.9% | CC(=O)Oc1ccccc1C(=O)Nc1ncc([N+](=O)[O-])s1 [PCM-0090347] | –
36 | -2.1% | CCC(=O)Nc1cccc(Oc2nc(Nc3ccc(N4CCN(C)CC4)cc3OC)ncc2Cl)c1 [PCM-0095726] | –
37 | 4.6% | C/C(=C(\CCOC(=O)c1ccccc1)SC(=O)c1ccccc1)N(C=O)Cc1cnc(C)nc1N [PCM-0216084] | –
38 | 33.8% | c1cn2cc(-c3ccc4cn[nH]c4c3)nc(Nc3ccc(N4CCOCC4)cc3)c2n1 [PCM-0095758] | –
39 | -52.5% | Fc1ccc(Cn2c(Cl)nc3ccccc32)cc1 [PCM-0216108] | –
40 | -3.9% | CCC[C@H](N[C@H]1CCc2cc(F)cc(F)c2C1)C(=O)Nc1cn(C(C)(C)CNCC(C)(C)C)cn1 [PCM-0215524] | –
41 | 7% | Cc1cc(Cl)ccc1OCCCC(=O)NO [PCM-0064710] | –
42 | 13.8% | CNC(=O)c1c(F)cccc1Nc1nc(Nc2cc3c(cc2OC)CCN3C(=O)CN(C)C)nc2[nH]ccc12 [PCM-0095412] | –
43 | 2.1% | Cc1cc(C(=O)NOCCO)c(Nc2ccc(I)cc2F)n(C)c1=O [PCM-0095312] | –
44 | 46.7% | O=c1c(O)c(-c2ccc(O)c(O)c2)oc2cc(O)ccc12 [PCM-0094846] | –
45 | 6.2% | N=c1ccn2c(n1)O[C@H]1[C@H](O)[C@@H](CO)O[C@H]12 [PCM-0094879] | –
46 | 46.2% | CCc1ccc(/C=C2/SC(=S)NC2=O)cc1 [PCM-0064568] | –
47 | 33.2% | C[C@@H]1[C@H]2c3cc4c(cc3O[C@@]35OCOC3=CC(=O)[C@H](C[C@H]1C)[C@@H]25)OCO4 [PCM-0216310] | –
48 | -8.6% | O=S(=O)(O)CCSSCCS(=O)(=O)O [PCM-0090667] | –
49 | 10.8% | Cc1cc(/C=C2/SC(=S)NC2=O)c(C)n1-c1cccnc1 [PCM-0215351] | –
50 | 1.4% | CC(=O)OCC(=O)[C@@]1(O)[C@H](C)C[C@H]2[C@@H]3CCC4=CC(=O)C=C[C@]4(C)[C@@]3(F)[C@@H](O)C[C@@]21C [PCM-0085852] | –
51 | 53.1% | N#C/C(=C\c1ccc(O)c(O)c1)C(=O)NCc1ccccc1 [PCM-0094962] | –

— paper PMC8041284, “Tunable Methacrylamides for Covalent Ligand Directed Release Chemistry” (Journal of the American Chemical Society, 2021)
